Earlier results as cited in patent publication US20230404077A1, “METHODS AND FORMULATIONS FOR CONTROLLING FLEA INFESTATIONS” (EctoGuard, LLC, priority 2022, published 2023).

Key:
[1] = tested on: fleas; conditions: cats
[2] = tested on: fleas; conditions: systemic / administered orally
[3] = tested on: fleas; conditions: cats, topical

| Substance | commercial oral dose for effective control (≥90% mortality) [1] [mg/kg] | activity relative to spinosad [2] [times] | topically active dose, corresponding extrapolated value [3] |
| --- | --- | --- | --- |
| spinosad | 45 to 90 | – | – |
| spinetoram | – | 5.5 | around 10 mg/kg |
